Test results from ChEMBL document CHEMBL4507319 (2021).

Legend:
[1] = molecular target: T1, Ephrin type-A receptor 1 (Homo sapiens) (UniProt P21709); experiment: EphA1(h) Eurofins kinase panel; settings: Compound concentration 1.0 uM
T1 sequence (whole entry): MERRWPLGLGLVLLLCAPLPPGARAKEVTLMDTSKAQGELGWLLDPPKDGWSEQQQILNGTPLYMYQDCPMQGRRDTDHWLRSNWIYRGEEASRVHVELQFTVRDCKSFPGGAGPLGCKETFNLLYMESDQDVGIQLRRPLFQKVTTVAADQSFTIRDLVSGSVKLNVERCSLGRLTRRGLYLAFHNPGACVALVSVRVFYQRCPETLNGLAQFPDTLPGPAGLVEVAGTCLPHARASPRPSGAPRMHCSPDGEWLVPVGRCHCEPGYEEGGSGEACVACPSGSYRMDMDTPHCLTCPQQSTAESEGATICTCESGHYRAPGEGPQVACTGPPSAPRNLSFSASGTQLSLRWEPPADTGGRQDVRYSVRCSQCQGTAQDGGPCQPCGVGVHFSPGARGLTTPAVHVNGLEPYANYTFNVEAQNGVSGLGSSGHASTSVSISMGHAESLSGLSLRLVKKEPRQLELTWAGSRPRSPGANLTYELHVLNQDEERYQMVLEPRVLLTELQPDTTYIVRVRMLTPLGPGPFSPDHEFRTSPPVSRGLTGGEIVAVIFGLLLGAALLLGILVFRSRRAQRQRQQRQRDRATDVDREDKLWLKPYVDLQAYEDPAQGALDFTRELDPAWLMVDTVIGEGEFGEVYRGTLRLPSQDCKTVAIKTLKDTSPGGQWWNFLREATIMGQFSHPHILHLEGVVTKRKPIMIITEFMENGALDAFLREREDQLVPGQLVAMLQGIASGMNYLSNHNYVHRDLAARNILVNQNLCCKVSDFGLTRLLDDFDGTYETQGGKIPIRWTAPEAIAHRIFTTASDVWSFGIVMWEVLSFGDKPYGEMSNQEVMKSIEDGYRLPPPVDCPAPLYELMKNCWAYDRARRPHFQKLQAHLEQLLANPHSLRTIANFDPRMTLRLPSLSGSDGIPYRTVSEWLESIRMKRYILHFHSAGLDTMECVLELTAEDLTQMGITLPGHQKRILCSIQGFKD

[2] = molecular target: Serine/threonine-protein kinase 24 (Homo sapiens, UniProt Q9Y6E0)
[3] = molecular target: Proto-oncogene tyrosine-protein kinase ROS (Homo sapiens) (UniProt P08922); experiment: Ros(h) Eurofins kinase panel; settings: Compound concentration 1.0 uM
[4] = molecular target: RAC-beta serine/threonine-protein kinase (Homo sapiens) (UniProt P31751); experiment: PKBbeta (h) Eurofins kinase panel; settings: Compound concentration 1.0 uM
[5] = molecular target: PI3K p110 beta/p85 alpha (Homo sapiens) (UniProt P27986+P42338); experiment: PI3 Kinase(p110b/p85a)(h) Eurofins kinase panel; type: protein-complex assay; settings: Compound concentration 1.0 uM
[6] = molecular target: High affinity nerve growth factor receptor (Homo sapiens) (UniProt P04629); experiment: TrkA(h) Eurofins kinase panel; settings: Compound concentration 1.0 uM
[7] = molecular target: T2, Mitogen-activated protein kinase 13 (Homo sapiens) (UniProt O15264); experiment: SAPK4(h) Eurofins kinase panel; settings: Compound concentration 1.0 uM
T2 sequence (whole entry): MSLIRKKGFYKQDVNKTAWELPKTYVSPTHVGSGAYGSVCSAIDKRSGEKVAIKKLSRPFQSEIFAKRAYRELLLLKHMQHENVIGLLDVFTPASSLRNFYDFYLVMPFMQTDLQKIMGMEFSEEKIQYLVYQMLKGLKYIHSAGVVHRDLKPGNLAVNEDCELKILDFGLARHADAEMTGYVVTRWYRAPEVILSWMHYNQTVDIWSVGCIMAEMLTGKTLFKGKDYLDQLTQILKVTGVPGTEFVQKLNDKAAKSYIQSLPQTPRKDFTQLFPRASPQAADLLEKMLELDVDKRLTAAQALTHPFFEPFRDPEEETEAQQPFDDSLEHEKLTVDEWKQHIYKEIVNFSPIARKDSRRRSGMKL

[8] = molecular target: T3, G protein-coupled receptor kinase 3 (Homo sapiens) (UniProt P35626); experiment: GRK3(h) Eurofins kinase panel; settings: Compound concentration 1.0 uM
T3 sequence (whole entry): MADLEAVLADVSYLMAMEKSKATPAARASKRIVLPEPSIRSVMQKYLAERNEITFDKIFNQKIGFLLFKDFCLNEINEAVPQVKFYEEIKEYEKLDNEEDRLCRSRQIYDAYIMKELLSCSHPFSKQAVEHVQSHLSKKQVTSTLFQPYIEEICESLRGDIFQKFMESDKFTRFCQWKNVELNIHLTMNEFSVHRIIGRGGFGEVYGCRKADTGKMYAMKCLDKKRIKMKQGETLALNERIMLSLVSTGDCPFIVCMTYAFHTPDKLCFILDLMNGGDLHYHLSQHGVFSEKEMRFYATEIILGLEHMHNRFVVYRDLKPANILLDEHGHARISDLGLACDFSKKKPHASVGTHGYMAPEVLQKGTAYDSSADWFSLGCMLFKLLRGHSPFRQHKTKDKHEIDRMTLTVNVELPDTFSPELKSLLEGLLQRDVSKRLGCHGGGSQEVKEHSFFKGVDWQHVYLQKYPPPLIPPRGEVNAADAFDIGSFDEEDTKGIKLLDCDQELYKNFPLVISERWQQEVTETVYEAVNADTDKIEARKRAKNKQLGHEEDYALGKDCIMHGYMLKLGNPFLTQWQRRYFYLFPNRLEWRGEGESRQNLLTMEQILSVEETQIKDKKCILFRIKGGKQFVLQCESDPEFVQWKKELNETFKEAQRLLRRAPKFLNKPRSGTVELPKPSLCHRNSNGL

[9] = molecular target: Tyrosine-protein kinase Fgr (Homo sapiens) (UniProt P09769); experiment: Fgr(h) Eurofins kinase panel; settings: Compound concentration 1.0 uM
[10] = molecular target: Serine/threonine-protein kinase MRCK alpha (Homo sapiens) (UniProt Q5VT25); experiment: MRCKalpha(h) Eurofins kinase panel; settings: Compound concentration 1.0 uM
Serine/threonine-protein kinase MRCK alpha (Homo sapiens), sequence (Q5VT25 whole entry): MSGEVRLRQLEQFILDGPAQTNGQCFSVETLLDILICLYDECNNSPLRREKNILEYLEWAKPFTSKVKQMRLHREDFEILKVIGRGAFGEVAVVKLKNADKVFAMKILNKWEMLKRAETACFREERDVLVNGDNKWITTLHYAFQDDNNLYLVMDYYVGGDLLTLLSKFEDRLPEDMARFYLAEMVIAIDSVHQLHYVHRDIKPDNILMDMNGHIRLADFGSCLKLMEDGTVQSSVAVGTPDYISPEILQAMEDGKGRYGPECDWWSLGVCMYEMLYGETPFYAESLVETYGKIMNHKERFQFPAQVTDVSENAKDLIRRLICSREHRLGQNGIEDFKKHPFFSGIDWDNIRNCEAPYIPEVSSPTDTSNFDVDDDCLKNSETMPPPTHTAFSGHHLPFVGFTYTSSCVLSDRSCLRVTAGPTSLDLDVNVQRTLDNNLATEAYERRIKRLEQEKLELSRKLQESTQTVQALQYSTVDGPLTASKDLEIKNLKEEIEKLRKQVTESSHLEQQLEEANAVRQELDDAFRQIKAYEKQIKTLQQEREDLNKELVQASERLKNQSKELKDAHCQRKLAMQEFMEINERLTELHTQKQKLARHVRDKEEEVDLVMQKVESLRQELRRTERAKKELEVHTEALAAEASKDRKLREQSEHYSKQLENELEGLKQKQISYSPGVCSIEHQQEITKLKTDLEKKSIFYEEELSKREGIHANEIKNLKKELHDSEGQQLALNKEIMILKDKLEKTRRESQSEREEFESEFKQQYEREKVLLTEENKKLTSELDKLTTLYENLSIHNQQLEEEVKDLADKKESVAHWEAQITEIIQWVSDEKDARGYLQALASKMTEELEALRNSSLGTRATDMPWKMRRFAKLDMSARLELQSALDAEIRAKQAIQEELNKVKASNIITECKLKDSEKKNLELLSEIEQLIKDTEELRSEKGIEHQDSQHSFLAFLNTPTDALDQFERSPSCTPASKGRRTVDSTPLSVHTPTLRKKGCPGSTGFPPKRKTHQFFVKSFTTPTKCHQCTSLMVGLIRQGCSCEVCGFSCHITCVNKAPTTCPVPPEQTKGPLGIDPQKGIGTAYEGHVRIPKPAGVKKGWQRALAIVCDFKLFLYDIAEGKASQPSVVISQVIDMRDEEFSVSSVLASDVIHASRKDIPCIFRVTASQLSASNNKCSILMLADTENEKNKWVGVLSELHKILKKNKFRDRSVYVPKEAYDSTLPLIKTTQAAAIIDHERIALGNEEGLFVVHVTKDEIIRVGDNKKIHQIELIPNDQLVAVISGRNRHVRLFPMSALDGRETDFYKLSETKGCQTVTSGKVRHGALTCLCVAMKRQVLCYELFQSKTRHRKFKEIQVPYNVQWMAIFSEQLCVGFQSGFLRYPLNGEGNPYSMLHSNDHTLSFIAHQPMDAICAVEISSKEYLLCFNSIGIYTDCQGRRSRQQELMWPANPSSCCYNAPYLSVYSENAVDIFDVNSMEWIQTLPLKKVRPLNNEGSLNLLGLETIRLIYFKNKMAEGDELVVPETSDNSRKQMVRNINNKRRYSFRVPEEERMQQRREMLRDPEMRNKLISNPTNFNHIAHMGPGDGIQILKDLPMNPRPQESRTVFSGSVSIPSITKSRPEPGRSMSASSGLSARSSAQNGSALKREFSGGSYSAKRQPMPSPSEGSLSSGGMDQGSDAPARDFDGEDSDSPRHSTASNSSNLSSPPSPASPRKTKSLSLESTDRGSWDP

High affinity nerve growth factor receptor (Homo sapiens), sequence (P04629 33-796 limits assumed): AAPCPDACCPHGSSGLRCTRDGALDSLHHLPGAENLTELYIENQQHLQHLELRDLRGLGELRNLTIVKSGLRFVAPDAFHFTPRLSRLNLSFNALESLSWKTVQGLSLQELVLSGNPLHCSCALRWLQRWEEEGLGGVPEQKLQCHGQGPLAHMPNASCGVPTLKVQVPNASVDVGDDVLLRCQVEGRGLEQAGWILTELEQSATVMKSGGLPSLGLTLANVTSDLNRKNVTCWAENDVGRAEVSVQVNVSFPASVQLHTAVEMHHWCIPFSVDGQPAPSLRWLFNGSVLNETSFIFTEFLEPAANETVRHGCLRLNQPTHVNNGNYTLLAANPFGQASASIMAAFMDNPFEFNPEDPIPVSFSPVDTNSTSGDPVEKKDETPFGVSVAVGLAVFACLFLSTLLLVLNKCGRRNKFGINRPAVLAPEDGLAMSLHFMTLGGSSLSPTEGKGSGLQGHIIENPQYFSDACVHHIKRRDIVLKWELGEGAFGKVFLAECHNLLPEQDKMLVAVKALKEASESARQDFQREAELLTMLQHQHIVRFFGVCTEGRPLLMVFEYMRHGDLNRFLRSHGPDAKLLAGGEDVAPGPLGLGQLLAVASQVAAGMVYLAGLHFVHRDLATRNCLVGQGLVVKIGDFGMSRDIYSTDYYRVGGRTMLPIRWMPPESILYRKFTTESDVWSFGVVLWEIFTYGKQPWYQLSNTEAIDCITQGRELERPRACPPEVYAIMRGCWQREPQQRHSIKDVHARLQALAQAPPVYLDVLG
Tyrosine-protein kinase Fgr (Homo sapiens), sequence (P09769 2-529 limits assumed): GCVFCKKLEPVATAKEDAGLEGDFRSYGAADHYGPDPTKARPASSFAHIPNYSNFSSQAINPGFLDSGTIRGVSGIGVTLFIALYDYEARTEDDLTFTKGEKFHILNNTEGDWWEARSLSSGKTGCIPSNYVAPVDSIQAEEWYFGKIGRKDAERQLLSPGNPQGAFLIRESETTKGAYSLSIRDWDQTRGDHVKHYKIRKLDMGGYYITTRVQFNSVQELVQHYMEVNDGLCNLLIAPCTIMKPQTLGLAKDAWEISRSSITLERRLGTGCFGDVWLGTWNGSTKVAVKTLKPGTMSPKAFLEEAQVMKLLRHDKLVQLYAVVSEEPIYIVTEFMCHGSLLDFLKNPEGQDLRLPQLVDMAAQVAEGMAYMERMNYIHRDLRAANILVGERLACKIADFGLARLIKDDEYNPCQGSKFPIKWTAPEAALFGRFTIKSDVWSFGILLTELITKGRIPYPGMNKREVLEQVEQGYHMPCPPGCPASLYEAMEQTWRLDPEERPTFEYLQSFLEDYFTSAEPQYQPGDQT
Serine/threonine-protein kinase 24, sequence (Q9Y6E0 whole entry): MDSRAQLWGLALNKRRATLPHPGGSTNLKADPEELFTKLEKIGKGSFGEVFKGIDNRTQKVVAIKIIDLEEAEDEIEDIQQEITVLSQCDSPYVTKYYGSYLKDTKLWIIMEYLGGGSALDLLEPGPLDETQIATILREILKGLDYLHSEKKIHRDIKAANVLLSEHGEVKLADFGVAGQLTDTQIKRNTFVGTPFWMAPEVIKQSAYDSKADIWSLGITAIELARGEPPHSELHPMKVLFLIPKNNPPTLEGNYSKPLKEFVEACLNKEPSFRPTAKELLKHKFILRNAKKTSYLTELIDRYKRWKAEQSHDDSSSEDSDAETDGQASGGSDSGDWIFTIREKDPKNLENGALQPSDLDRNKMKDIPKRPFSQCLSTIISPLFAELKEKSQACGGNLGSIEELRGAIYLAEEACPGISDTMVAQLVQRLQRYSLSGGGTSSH
RAC-beta serine/threonine-protein kinase (Homo sapiens), sequence (P31751 whole entry): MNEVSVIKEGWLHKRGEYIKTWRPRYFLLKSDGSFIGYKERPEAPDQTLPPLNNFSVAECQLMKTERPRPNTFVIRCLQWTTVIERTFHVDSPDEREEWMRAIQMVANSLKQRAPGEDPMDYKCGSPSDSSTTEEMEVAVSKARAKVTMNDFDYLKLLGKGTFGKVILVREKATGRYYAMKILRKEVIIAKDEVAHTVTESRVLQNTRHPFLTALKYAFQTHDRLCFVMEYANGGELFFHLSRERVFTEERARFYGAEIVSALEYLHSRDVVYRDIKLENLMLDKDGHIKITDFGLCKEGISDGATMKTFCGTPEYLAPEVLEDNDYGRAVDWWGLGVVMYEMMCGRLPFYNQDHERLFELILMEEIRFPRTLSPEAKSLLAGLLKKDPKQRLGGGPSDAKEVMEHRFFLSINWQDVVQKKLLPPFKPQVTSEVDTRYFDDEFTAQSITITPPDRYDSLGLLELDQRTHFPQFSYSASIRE

Structure (SMILES): CCc1ccccc1C(=O)Nc1n[nH]c2c(C)c(F)c(C3C(C#N)=C(C)N(C)C(C)=C3C#N)cc12 [BAY-3827]
- % residual kinase activity [1]: 98%
- IC50 [2]: 94 nM
- % residual kinase activity [3]: 100%
- % residual kinase activity [4]: 105%
- % residual kinase activity [5]: 99%
- % residual kinase activity [6]: 60%
- % residual kinase activity [7]: 111%
- % residual kinase activity [8]: 106%
- % residual kinase activity [9]: 93%
- % residual kinase activity [10]: 98%
